Test system: A549 cells
Assay: Cell viability by MTT method in A549 cells
Type: cell-based
Set-up: concentration or dose not given beside the values
Conditions: 72 hours treatment

SMILES	Cell Viability (% inhibition) (A549)
COC(=O)c1ccc(-c2csc(NC(=O)[C@H](CC(C)C)NS(=O)(=O)c3ccc(C)cc3)n2)cc1 [Compound 100, (S)-Methyl 4-(2-(4-methyl-2-(4-methylphenylsulfonamido)pentanamido)thiazol-4-yl)benzoate]	79.24 ± 1%
Cc1ccc(S(=O)(=O)N[C@@H](Cc2c[nH]c3ccccc23)C(=O)Nc2nc(-c3ccc(N4CCOCC4)cc3)cs2)cc1 [Compound 164, (S)-3-(1-indol-3-yl)-2-(4-methylphenylsulfonamido)-N-(4-(4-morpholinophenyl)thiazol-2-yl)propanamide]	88.05 ± 0.8%
Cc1ccc(S(=O)(=O)N[C@@H](CCC(=O)Nc2ccccc2)C(=O)Nc2ccc(N3CCOCC3)cc2)cc1 [Compound 172, (S)-2-(4-Methylphenylsulfonamido)-N^1-(4-morpholinophenyl)-N^5-phenylpentanediamide]	−2.14 ± ? .1%
COC(=O)c1ccc(-c2csc(NC(=O)[C@H](Cc3c[nH]c4ccccc34)NS(=O)(=O)c3ccc(C)cc3)n2)cc1 [Compound 165, (S)-Methyl 4-(2-(3-(1H-indol-3-yl)-2-(4-methylphenylsulfonamido)propanamido)thiazol-4-yl)benzoate]	78.22 ± 0.97%
CC(C)C[C@H](NS(=O)(=O)c1ccc(F)cc1)C(=O)Nc1ccc(N2CCOCC2)cc1 [Compound 21, (S)-2-(4-fluorophenylsulfonamido)-4-methyl-N-(4-morpholinophenyl)pentanamide]	33.04%
Cc1ccc(S(=O)(=O)N[C@@H](Cc2c[nH]c3ccccc23)C(=O)NC23CC4CC(CC(C4)C2)C3)cc1 [Compound 204, (S)—N-((3R,5R,7R)-adamantan-1-yl)-3-(1H-indol-3-yl)-2-(4-methylphenylsulfonamido)propanamide]	78.9 ± 2.62%
COc1ccc(-c2csc(NC(=O)[C@H](Cc3c[nH]c4ccccc34)NS(=O)(=O)c3ccc(Br)cc3)n2)c(OC)c1 [Compound 108, (S)-2-(4-Bromophenylsulfonamido)-N-(4-(2,4-dimethoxyphenyl)thiazol-2-yl)-3-(1H-indol-3-yl)propanamide]	9.05 ± 7.51%
Cc1ccc(S(=O)(=O)N[C@@H](CCC(=O)Nc2ccc(C(C)(C)C)cc2)C(=O)Nc2ccc(N3CCOCC3)cc2)cc1 [Compound 175, (S)—N^5-(4-tert-butylphenyl)-2-(4-methylphenylsulfonamido)-N^1-(4-morpholinophenyl)pentanediamide]	28.4 ± 4.82%
COC(=O)c1ccc(-c2csc(NC(=O)[C@H](Cc3c[nH]c4ccccc34)NS(=O)(=O)c3ccc(C)cc3)n2)cc1 [Compound 227, (S)-Methyl 4-(2-(3-(1H-indol-3-yl)-2-(4-methylphenylsulfonamido)propanamido)thiazol-4-yl)benzoate]	84.63 ± 0.51%
Cc1ccc(S(=O)(=O)N[C@@H](Cc2c[nH]c3ccccc23)C(=O)NNC(=O)c2ccc(N3CCOCC3)cc2)cc1 [Compound 163, (S)—N-(3-(1H-indol-3-yl)-1-(2-(4-morpholinobenzoyl)hydrazinyl)-1-oxopropan-2-yl)-4-methylbenzenesulfonamide]	18.63 ± 9.48%
Cc1ccc(S(=O)(=O)N[C@@H](Cc2cn(C=O)c3ccccc23)C(=O)Nc2ccc(N3CCOCC3)cc2)cc1 [Compound 125, (S)-3-(1-Formyl-1H-indol-3-yl)-2-(4-methylphenylsulfonamido)-N-(4-morpholinophenyl)propanamide]	49.76 ± 2.98%
Cc1ccc(S(=O)(=O)N[C@@H](CC(C)C)C(=O)Nc2ccc(N3CCC(C)CC3)cc2)cc1 [Compound 8, (S)-4-methyl-2-(4-methylphenylsulfonamido)-N-(4-(4-methylpiperidin-1-yl)phenyl) pentanamide]	24.89%
O=C(OCc1ccccc1)[C@H](Cc1c[nH]c2ccccc12)NS(=O)(=O)c1ccc(C(F)(F)F)nc1 [Compound 166, (S)-Benzyl 3-(1H-indol-3-yl)-2-(6-(trifluoromethyl)pyridine-3-sulfonamido)propanoate]	97.48 ± 1%
COc1ccc(S(=O)(=O)N[C@@H](CC(C)C)C(=O)Nc2ccc(N3CCOCC3)cc2)cc1 [Compound 29, (S)-2-(4-methoxyphenylsulfonamido)-4-methyl-N-(4-morpholinophenyl)pentanamide]	12.70 ± 4.95%
Cc1ccc(S(=O)(=O)N[C@@H](CC(C)C)C(=O)Nc2ccc(N3CCCC3)cc2)cc1 [Compound 17, (S)-4-methyl-2-(4-methylphenylsulfonamido)-N-(4-(pyrrolidin-1-yl)phenyl)pentanamide]	20.11%
Cc1ccc(S(=O)(=O)N[C@@H](Cn2cnc3ccccc32)C(=O)Nc2ccc(N3CCOCC3)cc2)cc1 [Compound 138, (S)-3-(1H-benzo[d]imidazol-1-yl)-2-(4-methylphenylsulfonamido)-N-(4-morpholinophenyl)propanamide]	14.63 ± 1.98%
COc1ccc(-c2csc(NC(=O)[C@H](CNC(=O)c3cncnc3)NS(=O)(=O)c3ccc(C)cc3)n2)cc1 [Compound 232, (S)—N-(3-((4-(4-methoxyphenyl)thiazol-2-yl)amino)-2-(4-methylphenylsulfonamido)-3-oxopropyl)pyrimidine-5-carboxamide]	40.98 ± 2.65%

SMILES	Cell Viability (% inhibition) (A549)
Cc1ccc(S(=O)(=O)N[C@@H](CC(C)C)C(=O)N2CCOCC2)cc1 [Compound 1, (S)-4-methyl-N-(4-methyl-1-morpholino-1-oxopentan-2-yl)benzenesulfonamide]	17.79%
Cc1ccc(S(=O)(=O)N[C@@H](CC(C)C)C(=O)Nc2ccc(N3CCS(=O)(=O)CC3)cc2)cc1 [Compound 15, (S)—N-(4-(1,1-dioxidothiomorpholino)phenyl)-4-methyl-2-(4-methylphenylsulfonamido)pentanamide]	4.86 ± 8.75%
Cc1cccc(S(=O)(=O)N[C@@H](Cc2c[nH]c3ccccc23)C(=O)Nc2ccc(N3CCOCC3)cc2)c1 [Compound 65, (S)-3-(1H-indol-3-yl)-2-(3-methylphenylsulfonamido)-N-(4-morpholinophenyl)propanamide]	74.94 ± 1.04%
Cc1ccc(S(=O)(=O)N[C@@H](Cc2c[nH]c3ccccc23)C(=O)NCCc2ccc(F)cc2)cc1 [Compound 207, (S)—N-(4-fluorophenethyl)-3-(1H-indol-3-yl)-2-(4-methylphenylsulfonamido)propanamide]	64.02 ± 2.15%
COc1ccc(-c2csc(NC(=O)[C@H](CNc3nc4ccccc4o3)NS(=O)(=O)c3ccc(C)cc3)n2)cc1 [Compound 229, (S)-3-(Benzo[d]oxazol-2-ylamino)-N-(4-(4-methoxyphenyl)thiazol-2-yl)-2-(4-methylphenylsulfonamido)propanamide]	74.91 ± 2.05%
Cc1ccccc1S(=O)(=O)N[C@@H](Cc1c[nH]c2ccccc12)C(=O)Nc1ccc(N2CCOCC2)cc1 [Compound 64, (S)-3-(1H-indol-3-yl)-2-(2-methylphenylsulfonamido)-N-(4-morpholinophenyl)propanamide]	51.75 ± 1.56%
Cc1ccc(S(=O)(=O)N[C@@H](CCC(=O)OCc2ccccc2)C(=O)Nc2ccc(N3CCOCC3)cc2)cc1 [Compound 141, (S)-Benzyl 4-(4-methylphenylsulfonamido)-5-(4-morpholinophenylamino)-5-oxopentanoate]	40.15 ± 6.15%
Cc1ccc(S(=O)(=O)N[C@@H](CC(=O)Nc2ccc([N+](=O)[O-])cc2)C(=O)Nc2ccc(N3CCOCC3)cc2)cc1 [Compound 177, (S)-2-(4-Methylphenylsulfonamido)-N^1-(4-morpholinophenyl)-N^4-(4-nitrophenyl)succinamide]	53.91 ± 0.92%
COC(=O)CC[C@@H](C(=O)Nc1ccc(N2CCOCC2)cc1)N(C)S(=O)(=O)c1ccccc1 [Compound 137, (S)-Methyl 4-(methylphenylsulfonamido)-5-(4-morpholinophenylamino)-5-oxopentanoate]	17.75 ± 5.15%
Cc1ccc(S(=O)(=O)N[C@@H](CCCCN)C(=O)Nc2ccc(N3CCOCC3)cc2)cc1 [Compound 169, (S)-6-Amino-2-(4-methylphenylsulfonamido)-N-(4-morpholinophenyl)hexanamide]	3.97 ± ? .91%
Cc1ccc(S(=O)(=O)N[C@H](CC(C)C)C(=O)N2CCOCC2)cc1 [Compound 2, (R)-4-methyl-N-(4-methyl-1-morpholino-1-oxopentan-2-yl)benzenesulfonamide]	29.46%
COc1ccc(-c2csc(NC(=O)[C@H](Cc3c[nH]c4ccccc34)NS(=O)(=O)c3ccc(F)cc3)n2)cc1 [Compound 213, (S)-2-(4-Fluorophenylsulfonamido)-3-(1H-indol-3-yl)-N-(4-(4-methoxyphenyl)thiazol-2-yl)propanamide]	83.29 ± 1.04%
O=C(NCCc1c[nH]c2ccccc12)[C@H](Cc1c[nH]c2ccccc12)NS(=O)(=O)c1ccc(Br)cc1 [Compound 209, (S)—N-(2-(1H-indol-3-yl)ethyl)-2-(4-bromophenylsulfonamido)-3-(1H-indol-3-yl)propanamide]	89.27 ± 0.77%
COc1ccc(-c2csc(NC(=O)[C@H](CNC(=O)c3ccccc3)NS(=O)(=O)c3ccc(C)cc3)n2)cc1 [Compound 230, (S)—N-(3-((4-(4-methoxyphenyl)thiazol-2-yl)amino)-2-(4-methylphenylsulfonamido)-3-oxopropyl)benzamide]	71.56 ± 1.67%
CC(C)C[C@H](NS(=O)(=O)c1ccc(Br)cc1)C(=O)Nc1ccc(N2CCOCC2)cc1 [Compound 22, (S)-2-(4-bromophenylsulfonamido)-4-methyl-N-(4-morpholinophenyl)pentanamide]	39.56 ± 5.42%
COc1ccc(-c2csc(NC(=O)[C@H](CNC(=O)c3cccnc3)NS(=O)(=O)c3ccc(C)cc3)n2)cc1 [Compound 231, (S)—N-(3-((4-(4-methoxyphenyl)thiazol-2-yl)amino)-2-(4-methylphenylsulfonamido)-3-oxopropyl)nicotinamide]	47.63 ± 5.89%

Reference: patent publication US20220204497A1, “NOVEL COMPOUND HAVING ANTICANCER ACTIVITY, AND METHOD FOR PRODUCING SAME” (MEDICINAL BIOCONVERGENCE RESEARCH CENTER, priority 2019, published 2022)
